Assay [1] relates to metastatic human breast (SUM 52 PE) and prostate (DU 145) cancer cell lines, human microvascular cells (hmvec). It is filed as cell-based. The note with it: for fold more potent than the unmodified PHSCN: SUM 52 PE and DU 145 invasion. The method, then: Some of the examples below employ an invasion assay utilizing naturally occurring basement membranes from 72 hour sea urchin embryos. Breast and prostate cancer invasion was induced with serum; hmvec invasion was induced with the PHSRN sequence of the plasma fibronectin (pFn) cell binding domain. The assay is described in U.S. Pat. No. 6,001,965, hereby incorporated by reference.
In this example, PHSCN peptides, where the sulfur of the SH group of cysteine was modified to block disulfide bond formation, were tested in an in vitro invasion assay utilizing naturally occurring basement membranes. More specifically, the invasion-inhibiting potencies of S-methylated and S-acetylated derivatives of the PHSCN (SEQ ID NO:1) peptide [i.e. Ac-PHSC(S—CH3)N—NH2 (SEQ ID NO:3) and Ac-PHSC(S—COCH3)N—NH2, (SEQ ID NO:4), respectively] were quantitated [in comparison with PHSCN (SEQ ID NO:1) dimerized by S—S bond formation] with two types of metastatic human cancer cell lines, i.e. a breast cell line (SUM 52 PE) and a prostate cell line (DU 145) (see FIG. 1 and FIG. 2, respectively). These modified peptides prevent breast cancer and prostate cancer invasion at concentrations in the pg/ml range.
In this example, PHSCN peptides, where two L-amino acids are substituted with D-amino acids, were tested in an in vitro invasion assay utilizing naturally occurring basement membranes. More specifically, the invasion-inhibiting potencies of Ac-PHScN—NH2 (SEQ ID NO:7), and Ac-PhScN—NH2 (SEQ ID NO:8) were quantitated [in comparison with Ac-PHSCN—NH2 (SEQ ID NO:12) as well as a scrambled peptide Ac-HSPNC—NH2 (SEQ ID NO:15)] with two types of metastatic human cancer cell lines, i.e. a breast cell line (SUM 52 PE) and a prostate cell line (DU 145) (see FIG. 3 and FIG. 4, respectively), as well as human microvascular cells (“hmvec”) (see FIG. 5). These modified peptides prevent breast cancer and prostate cancer invasion at concentrations in the pg/ml range.
Table I compares IC50's of Ac-PHSCN—NH2 (“PHSCN”) (SEQ ID NO:12), Ac-PhScN—NH2 (SEQ ID NO:8) (“PhScN”), Ac-PHScN—NH2 (SEQ ID NO:7) (“PHScN”), and the S-methylated and S-acetylated PHSCN derivatives [Ac-PHSC(S-Me)N—NH2 (SEQ ID NO:3) and Ac-PHSC(S—COCH3)N—NH2 (SEQ ID NO:4)]. The IC50 for PhScN is over 10,000-fold lower than that for PHSCN.

Assay [2] concerns DU 145 prostate cancer. Kind of assay: subcutaneous DU 145 tumors in nude mice, systemic therapy. It is filed as in vivo, athymic nude mice. The method, then:
In this example, PHSCN peptides, where two L-amino acids are substituted with D-amino acids, were tested in vivo. FIG. 6 compares the antitumorigenic effects of systemic Ac-PhScN—NH2 (SEQ ID NO:8) therapy at three different dosages (0.5, 0.05, and 0.005 micrograms per kg) with the antitumorigenic effects of 0.5 mg (500 micrograms) per kg of Ac-PHSCN—NH2 (SEQ ID NO:12) therapy using the DU 145 prostate cancer (as well as with untreated controls). The experiment involved generating subcutaneous DU 145 tumors in nude mice. More specifically, 500,000 suspended DU 145 cells were injected subcutaneously into the flanks of athymic nude mice. All mice were allowed to grow untreated DU 145 tumors in their flanks for about 8 weeks. All 3 therapies (i.e. using the three different dosages) were administered thrice-weekly by tail vein injection after the tumors became palpable. Each treatment group consisted of 8 intramuscular (flank) tumors. After 7 weeks of treatment, when the untreated tumors were very large, all mice were sacrificed at the same time, and all tumors dissected out and measured.

The target in assay [3] is α5β1 integrin (Homo sapiens, UniProt P08648). Kind of assay: competition with biotinylated PHSCN binding in SUM149PT cell extracts (blot). The note with it: PhScN:PHSCN ratios 0:1, 1:1, 10:1, 50:1. From the text:
In this experiment, biotinylated PHSCN peptide (Ac-PHSCNGGK(Bio)-NH2) (SEQ ID NO:18) was mixed with varying amounts of unlabeled Ac-PhScN—NH2 (SEQ ID NO:8). The mixed peptides were bound to detergent extracts of SUM149PT cells. A denaturing, non-reducing gel was run, blotted, and reacted with anti biotin primary antibody (FIG. 7). PhScN:PHSCN ratios were 0:1, 1:1, 10:1, or 50:1, as shown in lanes 2-5, respectively. Lane 1 contains the biotinylated α5β1 control. […] Thus, it is likely to interact with the same target site on α5 integrin as the PHSCN peptide. Alternatively PhScN binding could produce a structural or conformational change in the α5 subunit, such as a change in disulfide bonding pattern, that prevents binding of biotinylated PHSCN.

The test system of assay [4] is DU 145 prostate cancer cells. The note with it: 20 ug per ml, one hour preincubation, then irradiation.
Assay [5] concerns Panc1 cells. Description: invasion of irradiated cells on SU-ECM basement membranes. The format is cell-based. The note with it: 1 μg/ml peptide, single 2 Gy dose, 16 hours. The method, then: (§1) Adherent BxPC-3 and Panc1 cells were irradiated. Panc1 cells received a single 2 Gy dose. BxPC-3 cells received a single 3 Gy dose. Approximately 45 minutes later, the cells were suspended (trypsinized), pelleted and resuspended in medium containing 10% fetal calf serum. Then, the appropriate concentration of the Ac-PHSCN—NH2 (SEQ ID NO: 12) peptide, as well as a scrambled peptide Ac-HSPNC—NH2 (SEQ ID NO:15), was added to the suspended cells to make a final peptide concentration of 1 μg/ml, and they were dropped onto the surfaces of SU-ECM (sea urchin embryo basement membranes). At the time the cells were placed on the basement membranes, one hour had elapsed since irradiation. Cells were incubated on the basement membranes for 16 hours at 37° C. in 5% CO2, prior to scoring at 400-fold magnification, under phase contrast optics. All single cells adherent to the basement membranes were scored, with respect to whether they were inside the basement membranes (invaded), or were still adherent to the exterior surface (uninvaded). Mean invasion percentages were determined with their first standard deviations for each sample.

Assay [6] concerns BxPC-3 cells. The assay is described as above. The format is cell-based. The note with it: 1 μg/ml peptide, single 3 Gy dose, 16 hours. The method, then:
as §1

Where “and” joins values, the source holds several entries; their conditions need not be identical. Identical values can stand only once. Like-named read-outs stand apart in the source and are kept apart here. Bridge positions count the residues as written; N and C are the ends. Square brackets hold non-standard residues; d marks the D form. Peptide text beside a SMILES is read from it. I, II: the chains in the order shown.

As for `CC(=O)N1CCC[C@H]1C(=O)N[C@@H](Cc1c[nH]cn1)C(=O)N[C@@H](CO)C(=O)N[C@H](CS)C(=O)N[C@@H](CC(N)=O)C(N)=O` [Ac-PHScN-NH2] (Ac-PHS[dC]N-NH2), the “invasion-inhibiting potency relative to comparators, in words” value in assay [1] is on record as “better than the controls, albeit not as potent as the two D-amino acid-containing peptide”. Besides, the “IC50 (concentration exhibiting a 50% inhibition of invasion, relative to stimulated controls)” value in assay [1] (72 h) came to 0.005 ng/mL.

In the case of `CSC[C@H](NC(=O)[C@H](CO)NC(=O)[C@H](Cc1c[nH]cn1)NC(=O)[C@@H]1CCCN1C(C)=O)C(=O)N[C@@H](CC(N)=O)C(N)=O` [PHSC(S—CH3)N, Ac-PHSC(S—CH3)N—NH2] (Ac-PHSC(Me)N-NH2), the “IC50 (concentration exhibiting a 50% inhibition of invasion, relative to stimulated controls)” value in assay [1] (72 h) worked out at 0.001 ng/mL. Further, the “fold more potent than the unmodified PHSCN” value in assay [1] was approximately 1000 fold. Moreover, in assay [1] (listed as S-Me), the “invasion-inhibiting potency relative to comparators, in words” value was “many orders of magnitude more potent”.

On to `CC(=O)N1CCC[C@H]1C(=O)N[C@H](Cc1c[nH]cn1)C(=O)N[C@@H](CO)C(=O)N[C@H](CS)C(=O)N[C@@H](CC(N)=O)C(N)=O` [Ac-PhScN-NH2] (Ac-P[dH]S[dC]N-NH2), for which the “visible tumor tissue after treatment” value in assay [2] (0.5 μg/kg thrice-weekly by tail vein injection, 7 weeks of treatment) was “no tumor tissue was visible”. Moreover, the “potency as inhibitor of tumorigenesis in vivo relative to Ac-PHSCN—NH2” value in assay [2] (mouse, in vivo) is given as “orders of magnitude more potent”. In assay [3], the “competition for biotinylated PHSCN binding to the α5 integrin subunit” value is given as “efficient competitor”. Moreover, in assay [1], the “concentration range demonstrating inhibition of invasion” value is 3 to 10 pg/ml and 5.0 to 16.7 pM; the “fold lower IC50 than that for PHSCN” value is “over 10,000 fold”; the “invasion-inhibiting potency relative to comparators, in words” value is reported as “orders of magnitude more potent”. Moreover, the “IC50 (concentration exhibiting a 50% inhibition of invasion, relative to stimulated controls)” value in assay [1] (72 h) turned out to be 0.0003 ng/mL.

As to “PHSCNGGKMAP [PHSCNGGK-MAP (8), Ac-PHSCNGGK-MAP, multiantigenic peptide dendrimer of the parent peptide]”, the “enhancement ratio (MED control / MED with dendrimer)” value in assay [4] is “larger than one”. In addition, the “IC50 (concentration exhibiting a 50% inhibition of invasion, relative to stimulated controls)” value in assay [1] (cell type not given) was determined as 0.3 ng/mL.

“Ac-HSPNC—NH2 (Ac-HSPNC-NH2) [scrambled peptide control]”: the invasion after irradiation result in assay [5] and in assay [6] was “no inhibition of invasiveness” in each case.

On to `CC(=O)N1CCC[C@H]1C(=O)N[C@@H](Cc1c[nH]cn1)C(=O)N[C@@H](CO)C(=O)N[C@@H](CSSC[C@H](NC(=O)[C@H](CO)NC(=O)[C@H](Cc1c[nH]cn1)NC(=O)[C@@H]1CCCN1C(C)=O)C(=O)N[C@@H](CC(N)=O)C(N)=O)C(=O)N[C@@H](CC(N)=O)C(N)=O` [(PHSCN)2] (I: Ac-PHSCN-NH2 / II: Ac-PHSCN-NH2; disulfide I:4-II:4; N-terminus and C-terminus assumed), for which the “IC50 (concentration exhibiting a 50% inhibition of invasion, relative to stimulated controls)” value in assay [1] (72 h) was 0.1 to 0.5 ng/mL.

“Ac-PHSC(Ac)N-NH2 [PHSC(S—COCH3)N, Ac-PHSC(S—COCH3)N—NH2]”: the “IC50 (concentration exhibiting a 50% inhibition of invasion, relative to stimulated controls)” value in assay [1] (72 h) is 0.0001 ng/mL. Further, the “fold more potent than the unmodified PHSCN” value in assay [1] is ~100,000 fold. Also, in assay [1] (listed as S-OAc), the “invasion-inhibiting potency relative to comparators, in words” value is “many orders of magnitude more potent”.

The values above are taken from patent US8940701B2, “Compounds for, and methods of, treating cancer and inhibiting invasion and metastases” (The Regents of the University of Michigan, priority 2009, dated 2015).
